{
  "source": "ChEMBL document CHEMBL3870312",
  "about": "“Rational modification of donepezil as multifunctional acetylcholinesterase inhibitors for the treatment of Alzheimer's disease” (Eur J Med Chem, 2016)",
  "note": "The source made the active and inactive calls. No cut-off for these calls is given here.",
  "data": [
    {"organism": "Rattus norvegicus", "experiment": "Cytotoxicity against rat PC12 cells assessed as reduction in cell viability at 3.125 to 50 uM after 24 hrs by MTT assay", "format": "toxicity", "settings": "pc-12, 24 h", "values": [
      {"smiles": "COc1cc2c(cc1OC)C(=O)C(CC1CCN(Cc3ccc(O)c4ncccc34)CC1)C2", "note": "(stereo not drawn)", "Activity": "Non-Toxic"},
      {"smiles": "COc1cc2c(cc1OC)C(=O)C(CC1CCN(Cc3ccc(C)cc3)CC1)C2", "note": "(stereo not drawn)", "Activity": "Non-Toxic"}
    ]},
    {"system": "PC-12", "experiment": "Neuroprotective activity against Cu2+-amyloid beta (1 to 42 residues) induced cell death in rat PC12 cells assessed as increase in cell viability at 2.5 to 20 uM preincubated for 24 hrs followed by Cu2+-amyloid beta (1 to 42 residues) addition measured after 24 hrs by MTT assay", "format": "functional, cell-based", "settings": "not given", "values": [
      {"smiles": "COc1cc2c(cc1OC)C(=O)C(CC1CCN(Cc3ccc(O)c4ncccc34)CC1)C2", "note": "(stereo not drawn)", "Activity": "Active"}
    ]},
    {"system": "PC-12", "experiment": "Neuroprotective activity against amyloid beta (1 to 42 residues) induced cell death in rat PC12 cells assessed as increase in cell viability at 10 to 20 uM preincubated for 24 hrs followed by amyloid beta (1 to 42 residues) addition measured after 24 hrs by MTT assay", "format": "functional, cell-based", "settings": "not given", "values": [
      {"smiles": "COc1cc2c(cc1OC)C(=O)C(CC1CCN(Cc3ccc(O)c4ncccc34)CC1)C2", "note": "(stereo not drawn)", "Activity": "Active"}
    ]},
    {"system": "PC-12", "experiment": "Neuroprotective activity against Cu2+-amyloid beta (1 to 42 residues) induced cell death in rat PC12 cells by phase-contrast microscopy analysis", "format": "functional, cell-based", "settings": "not given", "values": [
      {"smiles": "COc1cc2c(cc1OC)C(=O)C(CC1CCN(Cc3ccc(O)c4ncccc34)CC1)C2", "note": "(stereo not drawn)", "Activity": "Active"}
    ]},
    {"system": "PC-12", "experiment": "Neuroprotective activity against amyloid beta (1 to 42 residues) induced cell death in rat PC12 cells by phase-contrast microscopy analysis", "format": "functional, cell-based", "settings": "not given", "values": [
      {"smiles": "COc1cc2c(cc1OC)C(=O)C(CC1CCN(Cc3ccc(O)c4ncccc34)CC1)C2", "note": "(stereo not drawn)", "Activity": "Active"}
    ]},
    {"system": "not listed separately", "experiment": "Inhibition of copper-mediated aggregation of amyloid beta (1 to 42 residues) (unknown origin) at 20 uM incubated for 46 to 48 hrs by thioflavin-T binding assay relative to control", "format": "physicochemical", "settings": "not given", "units": {"inhibition (INH)": "%"}, "values": [
      {"smiles": "COc1cc2c(cc1OC)C(=O)C(CC1CCN(Cc3cccc(C)c3)CC1)C2", "note": "(stereo not drawn)", "inhibition (INH)": "< 10"}
    ]},
    {"system": "PC-12", "experiment": "Neuroprotective activity against amyloid beta (1 to 42 residues) induced cell death in rat PC12 cells assessed as increase in cell viability at 20 uM preincubated for 24 hrs followed by amyloid beta (1 to 42 residues) addition measured after 24 hrs by MTT assay", "format": "functional, cell-based", "settings": "not given", "values": [
      {"smiles": "COc1ccc2[nH]cc(CCNC(C)=O)c2c1", "Activity": "Active"}
    ]},
    {"target": "Cholinesterase (Equus caballus, UniProt P81908)", "sequence (P81908 whole entry)": "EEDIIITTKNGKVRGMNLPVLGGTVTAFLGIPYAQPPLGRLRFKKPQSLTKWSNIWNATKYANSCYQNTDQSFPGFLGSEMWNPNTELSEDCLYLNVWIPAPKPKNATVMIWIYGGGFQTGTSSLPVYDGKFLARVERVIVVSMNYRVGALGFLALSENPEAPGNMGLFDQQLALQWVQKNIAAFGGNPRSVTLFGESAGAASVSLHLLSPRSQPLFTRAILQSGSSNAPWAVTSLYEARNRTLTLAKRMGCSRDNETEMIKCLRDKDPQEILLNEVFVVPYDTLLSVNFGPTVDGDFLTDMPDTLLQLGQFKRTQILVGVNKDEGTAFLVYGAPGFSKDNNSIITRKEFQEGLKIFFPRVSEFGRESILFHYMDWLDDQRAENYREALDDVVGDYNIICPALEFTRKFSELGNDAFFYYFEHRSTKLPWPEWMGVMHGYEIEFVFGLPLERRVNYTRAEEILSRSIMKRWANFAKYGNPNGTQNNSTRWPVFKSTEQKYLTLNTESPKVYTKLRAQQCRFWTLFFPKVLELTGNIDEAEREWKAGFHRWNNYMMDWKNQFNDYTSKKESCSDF", "experiment": "not given", "settings": "not given", "units": {"IC50": "µM"}, "values": [
      {"smiles": "COc1cc2c(cc1OC)C(=O)C(CC1CCN(Cc3cccc(C)c3)CC1)C2", "note": "(stereo not drawn)", "IC50": 5.83},
      {"smiles": "COc1cc2c(cc1OC)C(=O)C(CC1CCN(Cc3ccc(O)c4ncccc34)CC1)C2", "note": "(stereo not drawn)", "IC50": 7.65},
      {"smiles": "COc1cc2c(cc1OC)C(=O)C(CC1CCN(Cc3ccc(C)cc3)CC1)C2", "note": "(stereo not drawn)", "IC50": 6.67}
    ]},
    {"target": "Acetylcholinesterase (Electrophorus electricus, UniProt O42275)", "sequence (O42275 whole entry)": "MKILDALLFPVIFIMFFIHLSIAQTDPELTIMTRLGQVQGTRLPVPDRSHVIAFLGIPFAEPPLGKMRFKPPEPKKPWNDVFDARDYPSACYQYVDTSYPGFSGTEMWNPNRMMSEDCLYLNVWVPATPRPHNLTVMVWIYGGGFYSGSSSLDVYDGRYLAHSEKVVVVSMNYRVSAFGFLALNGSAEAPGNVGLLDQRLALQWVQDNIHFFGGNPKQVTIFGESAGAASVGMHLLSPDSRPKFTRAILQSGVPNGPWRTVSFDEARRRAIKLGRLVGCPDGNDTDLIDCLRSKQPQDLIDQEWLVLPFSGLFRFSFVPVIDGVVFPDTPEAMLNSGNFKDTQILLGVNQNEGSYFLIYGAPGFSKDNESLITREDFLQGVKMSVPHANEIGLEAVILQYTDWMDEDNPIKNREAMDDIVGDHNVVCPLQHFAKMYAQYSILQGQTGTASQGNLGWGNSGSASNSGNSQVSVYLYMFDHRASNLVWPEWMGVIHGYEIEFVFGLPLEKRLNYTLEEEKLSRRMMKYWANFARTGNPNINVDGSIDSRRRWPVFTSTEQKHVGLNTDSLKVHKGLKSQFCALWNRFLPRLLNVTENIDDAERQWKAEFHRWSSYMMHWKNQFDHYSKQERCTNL", "experiment": "not given", "settings": "not given", "units": {"IC50": "µM"}, "values": [
      {"smiles": "COc1cc2c(cc1OC)C(=O)C(CC1CCN(Cc3cccc(C)c3)CC1)C2", "note": "(stereo not drawn)", "IC50": 0.108},
      {"smiles": "COc1cc2c(cc1OC)C(=O)C(CC1CCN(Cc3ccc(O)c4ncccc34)CC1)C2", "note": "(stereo not drawn)", "IC50": 27.3},
      {"smiles": "COc1cc2c(cc1OC)C(=O)C(CC1CCN(Cc3ccc(C)cc3)CC1)C2", "note": "(stereo not drawn)", "IC50": 0.221}
    ]},
    {"target": "Acetylcholinesterase (Homo sapiens, UniProt P22303)", "sequence (P22303 whole entry)": "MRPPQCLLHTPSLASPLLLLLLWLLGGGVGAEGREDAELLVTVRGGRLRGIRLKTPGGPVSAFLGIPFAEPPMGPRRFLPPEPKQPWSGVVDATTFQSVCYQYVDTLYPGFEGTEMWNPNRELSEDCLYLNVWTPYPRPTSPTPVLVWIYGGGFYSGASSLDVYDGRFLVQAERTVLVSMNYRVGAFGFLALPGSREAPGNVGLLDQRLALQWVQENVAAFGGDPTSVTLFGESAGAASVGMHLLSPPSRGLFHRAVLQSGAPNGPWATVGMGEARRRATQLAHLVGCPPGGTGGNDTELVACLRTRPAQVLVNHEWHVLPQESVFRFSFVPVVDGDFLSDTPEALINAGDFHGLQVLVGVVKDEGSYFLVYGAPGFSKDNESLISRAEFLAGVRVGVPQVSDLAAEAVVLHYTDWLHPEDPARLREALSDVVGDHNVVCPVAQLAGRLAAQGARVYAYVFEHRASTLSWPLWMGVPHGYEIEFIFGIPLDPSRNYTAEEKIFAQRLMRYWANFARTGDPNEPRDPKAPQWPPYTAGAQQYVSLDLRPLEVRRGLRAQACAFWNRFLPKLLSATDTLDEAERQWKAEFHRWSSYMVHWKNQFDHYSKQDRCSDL", "experiment": "not given", "settings": "not given", "units": {"IC50": "µM"}, "values": [
      {"smiles": "COc1cc2c(cc1OC)C(=O)C(CC1CCN(Cc3cccc(C)c3)CC1)C2", "note": "(stereo not drawn)", "IC50": 0.088},
      {"smiles": "COc1cc2c(cc1OC)C(=O)C(CC1CCN(Cc3ccc(O)c4ncccc34)CC1)C2", "note": "(stereo not drawn)", "IC50": 20.9},
      {"smiles": "COc1cc2c(cc1OC)C(=O)C(CC1CCN(Cc3ccc(C)cc3)CC1)C2", "note": "(stereo not drawn)", "IC50": 0.127}
    ]},
    {"target": "Cholinesterase (Homo sapiens, UniProt P06276)", "sequence (P06276 whole entry)": "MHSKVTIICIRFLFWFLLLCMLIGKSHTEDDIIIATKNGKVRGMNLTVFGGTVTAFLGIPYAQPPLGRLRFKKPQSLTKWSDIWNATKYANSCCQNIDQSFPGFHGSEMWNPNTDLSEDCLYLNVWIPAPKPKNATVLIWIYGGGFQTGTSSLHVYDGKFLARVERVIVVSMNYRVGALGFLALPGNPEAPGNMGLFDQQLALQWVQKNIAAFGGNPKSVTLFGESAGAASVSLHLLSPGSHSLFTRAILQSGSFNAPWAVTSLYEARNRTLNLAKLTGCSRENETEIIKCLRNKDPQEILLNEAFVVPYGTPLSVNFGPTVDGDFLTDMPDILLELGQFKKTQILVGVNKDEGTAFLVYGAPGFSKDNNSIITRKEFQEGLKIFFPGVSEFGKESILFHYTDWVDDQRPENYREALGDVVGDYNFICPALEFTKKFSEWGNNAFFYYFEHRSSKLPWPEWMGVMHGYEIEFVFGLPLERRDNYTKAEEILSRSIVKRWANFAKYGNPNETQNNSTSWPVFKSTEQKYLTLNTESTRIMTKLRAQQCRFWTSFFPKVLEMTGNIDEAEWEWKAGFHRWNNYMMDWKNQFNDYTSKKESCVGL", "experiment": "not given", "settings": "not given", "units": {"IC50": "µM"}, "values": [
      {"smiles": "COc1cc2c(cc1OC)C(=O)C(CC1CCN(Cc3cccc(C)c3)CC1)C2", "note": "(stereo not drawn)", "IC50": 28.1},
      {"smiles": "COc1cc2c(cc1OC)C(=O)C(CC1CCN(Cc3ccc(C)cc3)CC1)C2", "note": "(stereo not drawn)", "IC50": 43.8}
    ]},
    {"target": "Amyloid-beta precursor protein (Homo sapiens) (UniProt P05067)", "sequence (P05067 whole entry)": "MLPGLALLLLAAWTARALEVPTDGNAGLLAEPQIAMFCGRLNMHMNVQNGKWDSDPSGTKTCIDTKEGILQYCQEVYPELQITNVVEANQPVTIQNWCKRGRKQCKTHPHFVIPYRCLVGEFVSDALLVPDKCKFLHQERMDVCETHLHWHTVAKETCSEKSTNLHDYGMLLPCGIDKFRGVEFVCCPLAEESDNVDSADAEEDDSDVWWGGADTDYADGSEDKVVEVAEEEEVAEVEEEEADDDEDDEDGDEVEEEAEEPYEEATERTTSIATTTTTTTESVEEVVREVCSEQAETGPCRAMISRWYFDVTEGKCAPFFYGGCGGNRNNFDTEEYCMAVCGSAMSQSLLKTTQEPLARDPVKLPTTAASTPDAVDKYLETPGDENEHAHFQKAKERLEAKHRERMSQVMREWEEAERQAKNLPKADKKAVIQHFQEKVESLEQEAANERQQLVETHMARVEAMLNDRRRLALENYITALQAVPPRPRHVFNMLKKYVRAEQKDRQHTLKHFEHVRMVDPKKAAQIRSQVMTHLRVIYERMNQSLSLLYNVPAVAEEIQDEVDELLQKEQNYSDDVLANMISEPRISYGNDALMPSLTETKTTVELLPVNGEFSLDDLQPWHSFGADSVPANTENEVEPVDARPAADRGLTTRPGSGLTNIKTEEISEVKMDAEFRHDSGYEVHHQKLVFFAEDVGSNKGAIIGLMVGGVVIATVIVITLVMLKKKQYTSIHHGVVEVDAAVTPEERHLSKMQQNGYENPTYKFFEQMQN", "experiment": "not given", "settings": "at 20 µM", "units": {"inhibition": "%"}, "values": [
      {"smiles": "COc1cc2c(cc1OC)C(=O)C(CC1CCN(Cc3cccc(C)c3)CC1)C2", "note": "(stereo not drawn)", "inhibition": "> 10"},
      {"smiles": "COc1cc2c(cc1OC)C(=O)C(CC1CCN(Cc3ccc(O)c4ncccc34)CC1)C2", "note": "(stereo not drawn)", "inhibition": 51.1}
    ]},
    {"system": "not listed separately", "experiment": "in vitro", "settings": "PAMPA", "units": {"Papp at 18 h": "×10⁻⁶ cm/s"}, "description": "Effective permeability of the compound after 18 hrs by PAMPA", "values": [
      {"smiles": "COc1cc2c(cc1OC)C(=O)C(CC1CCN(Cc3cccc(C)c3)CC1)C2", "note": "(stereo not drawn)", "Papp at 18 h": 12.6},
      {"smiles": "COc1cc2c(cc1OC)C(=O)C(CC1CCN(Cc3ccc(O)c4ncccc34)CC1)C2", "note": "(stereo not drawn)", "Papp at 18 h": 8.8}
    ]}
  ]
}
